In US20230012368A1 (Hoffmann-La Roche Inc., priority 2018, published 2023) one finds IC90 data, which are given here for 26 compounds.

Where a name gives a salt, the structure may show the parent alone.

One assay concerns Acinetobacter baumannii ATCC 17978. In words: Antimicrobial susceptibility testing: 90% growth inhibitory concentration (IC90) determination. Format: cell-based. As to conditions: 90% growth inhibitory concentration; Acinetobacter baumannii ATCC17978; Iso-Sensitest broth, OD 600 nm over 16h; read-out: ATCC17978 IC90. In short, it runs like this:
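Compounds serially twofold diluted (e.g. 50 to 0.097 μM final) in Iso-Sensitest broth, inoculated at ~5×10^(5) CFU/ml, incubated at 35±2° C. OD600 read every 20 minutes over 16h. IC90 taken as concentration inhibiting 90% of growth during logarithmic phase.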
Regarding `COc1ccc(-c2cnc3c(Nc4ccc(C(=O)NCCN5CCNCC5)c(C)c4)nccn23)c(F)c1F` [Example 56, 4-((3-(2,3-difluoro-4-methoxyphenyl)imidazo [1,2-a]pyrazin-8-yl)amino)-2-methyl-N-(2-(piperazin-1-yl)ethyl)benzamide hydrochloride], the IC90 turned out to be 0.25 µM.
In the case of `CCc1cc(Nc2nccn3c(-c4ccc(Cl)c(F)c4F)cnc23)ccc1C(=O)N(C)CCCN` [Example 282, N-(3-aminopropyl)-4-[[3-(4-chloro-2,3-difluorophenyl)imidazo[1,2-a]pyrazin-8-yl]amino]-2-ethyl-N-methylbenzamide; hydrochloride], the concentration for an effect of 90% (IC90) worked out at 1.4 µM.

Still in this assay, the particulars now being: Acinetobacter baumannii, ATCC17978, 16 h, 90% growth inhibitory concentration; Acinetobacter baumannii ATCC17978; Iso-Sensitest broth, OD 600 nm over 16h; read-out: ATCC17978 IC90.
Turning to `COc1ccc(-c2cnc3c(Nc4ccc5c(c4)CCN(CCCN)C5=O)nccn23)c(F)c1F` [Example 164, 2-(3-aminopropyl)-6-[[3-(2,3-difluoro-4-methoxy-phenyl)imidazo[1,2-a]pyrazin-s-yl]amino]-3,4-dihydroisoquinolin-1-one], the IC90 was 0.29 µM.
Still for that read-out and setting: the value for `COc1ccc(-c2cnc3c(Nc4ccc(C(=O)NCCCN)c(CC(F)F)c4)nccn23)c(F)c1F` [Example 316, N-(3-aminopropyl)-2-(2,2-difluoroethyl)-4-[[3-(2,3-difluoro-4-methoxyphenyl)imidazo[1,2-a]pyrazin-8-yl]amino]benzamide;formic acid] was 2.1 µM; that for `Cc1cc(Nc2nccn3c(-c4ccc(OC(F)F)cc4)cnc23)ccc1C(=O)N(CCO)CCO` [Example 262, 4-[[3-[4-(difluoromethoxy)phenyl]im-idazo[1,2-a]pyrazin-8-yl]amino]-N,N-bis(2-hydroxyethyl)-2-methylbenzamide] was 5 µM.
Turning to `CCc1cc(Nc2nccn3c(-c4ccc(OCC#N)c(F)c4F)cnc23)ccc1C(=O)NCCNC(=O)[C@H](N)CCCNC(=N)N` [Example 148, N-[2-[[(2R)-2-amino-5-guanidino-pentanoyl]amino]ethyl]-4-[[3-[4-(cyanomethoxy)-2,3-difluoro-phenyl]imidazo[1,2-a]pyrazin-8-yl]amino]-2-ethyl-benzamide formate], the IC90 was 0.1 µM.
In the case of `CCc1cc(Nc2nccn3c(-c4ccc(OC(F)F)c(F)c4F)cnc23)ccc1C(=O)NCC(=O)NCCN(C)C` [Example 404, 4-((3-(4-(difluoromethoxy)-2,3-difluorophenyl)imidazo[1,2-a]pyrazin-8-yl)amino)-N-(2-((2-(dimethylamino)ethyl)amino)-2-oxoethyl)-2-ethylbenzamide], the IC90 came to 0.36 µM.
Same read-out and setting: the value for `COc1ccc(-c2cnc3c(Nc4ccc(C(=O)NCC5CCNC5)c(C)c4)nccn23)c(F)c1F` (centres unmarked) [Example 57, 4-[[3-(2,3-difluoro-4-methoxy-phenyl)imidazo[1,2-a]pyrazin-8-yl]amino]-2-methyl-N-(pyrrolidin-3-ylmethyl)benzamide] was 0.29 µM; that for `C=Cc1cc(Nc2nccn3c(-c4ccc(OC(F)F)cc4)cnc23)ccc1C(=O)N(C)CCN1CCNCC1` [Example 217, 4-[[3-[4-(difluoromethoxy)phenyl]im-idazo[1,2-a]pyrazin-8-yl]amino]-2-ethenyl-N-methyl-N-(2-piperazin-1-ylethyl)benzamide;hydrochlo-ride] was 0.84 µM.
In the case of `CCc1cc(Nc2nccn3c(-c4ccc(OC(F)F)c(F)c4F)cnc23)ccc1C(=O)NCC1(O)CCNC1` (centres unmarked) [Example 311, 4-[[3-[4-(difluoromethoxy)-2,3-difluorophenyl]imidazo[1,2-a]pyrazin-8-yl]amino]-2-ethyl-N-[(3-hydroxypyrrolidin-3-yl)methyl]benzamide;hydro-chloride], the concentration for an effect of 90% (IC90) turned out to be 0.8 µM.
On the same count and under the same terms, the value for `CCc1cc(Nc2nccn3c(-c4ccc(OC)c(F)c4F)cnc23)ccc1C(=O)NCC(O)CNC(=O)[C@@H](N)CN` (mixture of isomers) [Example 415, N-[3-[[(2S)-2,3-diaminopropanoyl]amino]-2-hydroxypropyl]-4-[[3-(2,3-difluoro-4-methoxyphenyl)imidazo[1,2-a]pyrazin-8-yl]amino]-2-ethylbenzamide;dihydrochlo-ride] was 0.52 µM; that for `CCc1cc(Nc2nccn3c(-c4ccc(OCC#N)c(F)c4F)cnc23)ccc1C(=O)NCCNC(=O)CCN` [Example 137, N-[2-(3-aminopropanoyl-amino)ethyl]-4-[[3-[4-(cyanomethoxy)-2,3-difluoro-phenyl]imidazo[1,2-a]pyrazin-8-yl]amino]-2-ethyl-benzamide formate] was 0.07 µM.
With `COc1ccc(-c2cnc3c(Nc4ccc(C(=O)NCCN5CCNCC5)c(Cl)c4)nccn23)cc1F` [Example 188, 2-chloro-4-[[3-(3-fluoro-4-methoxyphenyl)imidazo[1,2-a]pyrazin-8-yl]amino]-N-(2-piperazin-1-ylethyl)benzamide;hydrochlo-ride], the IC90 amounted to 0.27 µM.
As for `CCc1cc(Nc2nccn3c(-c4ccc(OC)c(F)c4F)cnc23)ccc1C(=O)NCC1CCN(Cc2cccnc2)CC1` [Example 554, 4-[[3-(2,3-difluoro-4-methoxy-phenyl)imidazo[1,2-a]pyrazin-8-yl]amino]-2-ethyl-N-[[1-(3-pyridylmethyl)-4-piperidyl]methyl]benzamide], the concentration for an effect of 90% (IC90) was 0.17 µM.
As to `CCc1cc(Nc2nccn3c(-c4ccc(OC)c(F)c4F)cnc23)ccc1C(=O)NCCNC(=O)CCCNCCCN` [Example 564, N-(2-(4-((3-aminopropyl)amino)butanami-do)ethyl)-4-((3-(2,3-difluoro-4-methoxyphenyl)imidazo[1,2-a]pyrazin-8-yl)amino)-2-ethylbenzamide trihydrochloride], the IC90 turned out to be 0.5 µM.
The same measure, in the same setting: as for `CCc1cc(Nc2nccn3c(-c4ccc(OC)c(F)c4F)cnc23)ccc1C(=O)NCCNC(=O)CC(O)CN` (centres unmarked) [Example 376, N-[2-[(4-amino-3-hydroxybutanoyl)amino]ethyl]-4-[[3-(2,3-difluoro-4-methoxyphenyl)imidazo[1,2-a]pyrazin-8-yl]amino]-2-ethylbenzamide], the figure is 0.2 µM; as for `COc1ccc(-c2cnc3c(Nc4ccc(C(=O)N(C)CCCCC(=O)N5CCNCC5)c(C)c4)nccn23)cc1F` [Example 273, 4-[[3-(3-fluoro-4-methoxyphenyl)imidazo[1,2-a]pyrazin-8-yl]amino]-N,2-dimethyl-N-(5-oxo-5-piperazin-1-ylpentyl)benzamide], 0.18 µM.
Still for that read-out and setting: as for `CCc1cc(Nc2nccn3c(-c4ccc(OC)c(F)c4F)cnc23)ccc1C(=O)N[C@H](C)CNC(=N)C(C)C` [Example 502, 4-[[3-(2,3-difluoro-4-methoxyphenyl)imidazo[1,2-a]pyrazin-8-yl]amino]-2-ethyl-#N!-[(2#R!)-1-(2-methylpropanimidoylamino)propan-2-yl]benzamide], the figure is 0.15 µM; as for `Cc1cc(Nc2nccn3c(-c4ccc(OC(F)F)cc4)cnc23)ccc1C(=O)N(C)CCCN1CCNCC1` [Example 219, 4-[[3-[4-(difluoromethoxy)phenyl]im-idazo[1,2-a]pyrazin-8-yl]amino]-N,2-dimethyl-N-(3-piperazin-1-ylpropyl)benzamide;hydrochlo-ride], 1 µM; as for `COc1ccc(-c2cnc3c(Nc4ccc(C(=O)NCCO)cc4)nccn23)cc1Cl` [Example 243, 4-[[3-(3-chloro-4-methoxyphenyl)imidazo[1,2-a]pyrazin-8-yl]amino]-N-(2-hydroxyethyl)benzamide], 2.1 µM.
Same read-out and setting: the value for `COc1ccc(-c2cnc3c(Nc4ccc(C(=O)NCCCCCN)c(C)c4)nccn23)cc1` [Example 184, N-(5-aminopentyl)-4-[[3-(4-methoxyphenyl)imidazo[1,2-a]pyrazin-8-yl]amino]-2-methylbenzamide; hydrochlo-ride] was 0.22 µM; that for `CCc1cc(Nc2nccn3c(-c4ccc(Oc5ccncn5)c(F)c4F)cnc23)ccc1C(=O)N[C@@H](C)CNC(=O)[C@@H](N)CCNC(=N)N` [Example 457, N-[(1S)-2-[[(2S)-2-amino-4-guanidino-butanoyl]amino]-1-methyl-ethyl]-4-[[3-(2,3-difluoro-4-pyrimidin-4-yloxy-phenyl)imidazo[1,2-a]pyrazin-8-yl]amino]-2-ethyl-benzamide; formic acid] was 0.98 µM.
`CCc1cc(Nc2nccn3c(-c4ccc(Oc5nccc(C)n5)c(F)c4F)cnc23)ccc1C(=O)N[C@@H](C)CNC(=O)[C@@H](N)CCNC(=N)N` [Example 455, N-((S)-1-((S)-2-amino-4-guanidinobutanamido)propan-2-yl)-4-((3-(2,3-difluoro-4-((4-methylpyrimidin-2-yl)oxy)phenyl)imidazo[1,2-a]pyrazin-8-yl)amino)-2-ethylbenzamide formiate 1:2]: the concentration for an effect of 90% (IC90) stood at 0.72 µM.
As to `COc1ccc(-c2cnc3c(Nc4ccc(C(=O)NCC5CCN(C(=N)N)CC5)c(Cl)c4)nccn23)cc1F` [Example 296, N-[(1-carbamimidoylpiperidin-4-yl)methyl]-2-chloro-4-[[3-(3-fluoro-4-methoxyphenyl)imidazo[1,2-a]pyrazin-8-yl]amino]benzamide], the IC90 was 0.15 µM.
Still for that read-out and setting: as for `CCc1cc(Nc2nccn3c(-c4ccc(Oc5ccccn5)c(F)c4F)cnc23)ccc1C(=O)NCCNC(=O)[C@H](N)CCNC(=N)N` [Example 426, N-[2-[[(2R)-2-amino-4-guanidino-butanoyl]amino]ethyl]-4-[[3-[2,3-difluoro-4-(2-pyridyloxy)phenyl]imidazo [1,2-a]pyrazin-8-yl]amino]-2-ethyl-benzamide; formic acid], the figure is 0.82 µM; as for `CCc1cc(Nc2nccn3c(-c4ccc(OCC#N)c(F)c4F)cnc23)ccc1C(=O)NCCNC(=O)[C@@H](N)CCN` [Example 144, 4-[[3-[4-(cyanomethoxy)-2,3-difluoro-phenyl]imidazo[1,2-a]pyrazin-8-yl]amino]-N-[2-[[(2S)-2,4-diaminobutanoyl]amino]ethyl]-2-ethyl-benzamide formate], 0.09 µM.

By IC90 is commonly meant the concentration at which the effect reaches the 90% level.
